The values below come from patent publication US12378268B2, “Heterocyclic THR-β receptor agonist compound and preparation method and use therefor” (Hepagene Therapeutics (HK) Limited, priority 2019, dated 2025).

Where two headings read alike, the source gives them in different places.

One data set addresses T1, THR-β (Homo sapiens, UniProt P10828).
T1 construct: TRB LBD, GST purchased from Thermo Fisher; purchased Thermo Fisher PV4762
Briefly: Test of the binding ability of the compound to TRβ (TRβ LBD/RXR, biotin-SRC2-2 co-activating peptide, 665/615 nm fluorescence ratio). It is filed as biochemical. How it is done: 1. Main experimental materials and instruments:
Biotin-SRC2-2 co-activating peptide purchased from Sangon Biotech (Shanghai) Co., Ltd.
TRB LBD, GST purchased from Thermo Fisher (product No. PV4762)
Europium-conjugated anti-glutathione antibody purchased from Cisbio (product No. 61GSTKLB)
Streptavidin-D2 purchased from Cisbio (product No. 610SADAB)
(§1) 4.2 The activity percentage was calculated as follows: […]
(§2) RatioCompound: Average of the relative ratios of the compound wells of the embodiments
(§3) RatioPositive: Average of the relative ratios of all positive control wells.
(§4) RatioBlank: Average of the relative ratios of all negative control wells.
(§5) EC50 was calculated by fitting the relationship between activity (%) and compound logarithmic concentration with Graphpad 5.0 by a nonlinear regression method.
(§6) Y=Bottom+ (top-bottom)/(1+10^((LogEC50−X)*slope))
(§7) X: Compound logarithmic concentration Y: Percentage activity

Data set [1] can be described thus: Drug metabolism experiment on prodrug in SD rats: plasma pharmacokinetic parameters. The conditions noted are these: plasma. It is filed as in vivo. How it is done:
(§8) Test 3: Drug metabolism experiment on prodrug in SD rats
(§9) In the experiment, […] of 12 male SD rats having similar body weights were selected and orally administered compound 9, compound 10, and the control drug VK2809 (the prodrug of MB07444, structured as shown below) at a dose of 3 mg/kg at a single time, respectively, and blood and liver samples were collected at different time points.
(§10) Solutions of compound 9/compound 10 and VK2809 with a final concentration of 0.6 mg/mL were respectively prepared, and the ratio between the solvents used for the preparation was PEG400: pure water =50:50 (v/v).
(§11) No randomization was performed. The weights of the animals were measured before administration, and healthy animals with similar body weights were selected for inclusion in the experiment. The oral dose was 3 mg/kg.
(§12) At least 0.2 mL of blood was collected from the tail vein or jugular vein, and heparin sodium was used as the anticoagulant.
15 min, 30 min, 1 h, 2 h, 4 h, 6 h, 8 h, 24 h after administration.
(§13) After being collected, a blood sample was placed in a marked ice-water bath centrifuge tube, plasma was quickly separated by centrifugation under centrifugation conditions: 3500 rpm, 10 minutes, and 4° C., and the plasma was stored under −40° C. for testing.
(§14) Q TRAP6500 mass spectrometer with ESI source was used to perform negative ion MRM scanning. An LC-MS/MS analysis method was used to detect the contents of compound 9, compound 10 and its active metabolite 1, VK2809 and its active metabolite MB07444 in the plasma and liver. The metabolic kinetics data analysis software WinNonlin 7.0 was used to calculate the concentration data of plasma, and the non-compartmental model (NCA) method was used to calculate the pharmacokinetic parameters.

The next data set has as its target T2, THR-α (Homo sapiens, UniProt P10827).
T2 construct: TR-a LBD, GST purchased from Thermo Fisher; purchased Thermo Fisher PV4762
Briefly: Test of the binding ability of the compound to TRα (TRα LBD/RXRα, biotin-SRC2-2 co-activating peptide, 665/615 nm fluorescence ratio). It is filed as biochemical. As to the method:
as §1, §2, §3, §4, §5, §6, §7

Data set [2] can be described thus: Drug metabolism experiment on prodrug in SD rats: concentration in liver compared with blood. It is filed as in vivo. Particulars: male, Sprague-Dawley, rat, po, 3 mg/kg, SD rats, oral 3 mg/kg VK-2809. As to the method:
as §8, §9, §10, §11, §12, §13
After the liver sample was collected, its surface was washed with normal saline, dried with medical gauze, placed in a labeled small ziplock bag, and stored under −40° C. for testing.
as §14
The parameters of concentration in the livers of the SD rats and a comparison with the concentration in plasma are shown in Table 3 below: […]

Setting [3] is: activity relative to positive control.
The mark [4] stands for this setting: male, Sprague-Dawley (SD), rat, po, 3 mg/kg, oral 3 mg/kg VK2809.

T1 sequence (P10828 217-461 limits assumed, other chains not shown): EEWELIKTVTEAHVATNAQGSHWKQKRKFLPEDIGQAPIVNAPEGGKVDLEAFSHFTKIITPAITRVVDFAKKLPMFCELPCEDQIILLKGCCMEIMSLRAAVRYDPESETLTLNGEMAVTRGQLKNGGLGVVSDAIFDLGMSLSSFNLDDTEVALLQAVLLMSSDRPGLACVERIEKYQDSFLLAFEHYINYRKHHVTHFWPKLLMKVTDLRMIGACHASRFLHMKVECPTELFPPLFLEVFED
T1 sequence (P28702 whole entry partner, other chains not shown, the tested form may be a part): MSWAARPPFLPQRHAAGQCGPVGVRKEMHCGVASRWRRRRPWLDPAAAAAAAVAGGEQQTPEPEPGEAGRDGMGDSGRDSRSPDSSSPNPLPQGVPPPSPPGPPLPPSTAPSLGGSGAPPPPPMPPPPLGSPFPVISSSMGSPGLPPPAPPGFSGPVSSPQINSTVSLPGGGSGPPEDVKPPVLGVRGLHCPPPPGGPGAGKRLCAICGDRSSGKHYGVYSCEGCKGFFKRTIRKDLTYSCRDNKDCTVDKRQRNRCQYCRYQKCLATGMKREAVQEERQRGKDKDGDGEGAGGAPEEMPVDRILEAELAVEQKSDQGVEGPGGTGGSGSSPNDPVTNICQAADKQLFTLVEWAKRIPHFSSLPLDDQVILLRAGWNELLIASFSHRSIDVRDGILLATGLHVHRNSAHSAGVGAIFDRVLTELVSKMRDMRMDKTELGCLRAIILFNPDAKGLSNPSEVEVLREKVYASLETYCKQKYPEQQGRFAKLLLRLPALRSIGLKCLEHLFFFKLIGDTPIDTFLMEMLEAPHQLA
T2 sequence (P10827 163-410 isoform P10827-2 limits assumed, other chains not shown): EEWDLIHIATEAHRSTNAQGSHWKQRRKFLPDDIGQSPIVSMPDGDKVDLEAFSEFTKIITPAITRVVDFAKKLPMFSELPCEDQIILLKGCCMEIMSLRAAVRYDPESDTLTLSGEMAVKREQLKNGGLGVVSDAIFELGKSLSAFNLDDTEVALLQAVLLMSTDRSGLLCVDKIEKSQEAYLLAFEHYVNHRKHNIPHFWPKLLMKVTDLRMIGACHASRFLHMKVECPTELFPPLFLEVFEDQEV
T2 sequence (P19793 whole entry partner, other chains not shown, the tested form may be a part): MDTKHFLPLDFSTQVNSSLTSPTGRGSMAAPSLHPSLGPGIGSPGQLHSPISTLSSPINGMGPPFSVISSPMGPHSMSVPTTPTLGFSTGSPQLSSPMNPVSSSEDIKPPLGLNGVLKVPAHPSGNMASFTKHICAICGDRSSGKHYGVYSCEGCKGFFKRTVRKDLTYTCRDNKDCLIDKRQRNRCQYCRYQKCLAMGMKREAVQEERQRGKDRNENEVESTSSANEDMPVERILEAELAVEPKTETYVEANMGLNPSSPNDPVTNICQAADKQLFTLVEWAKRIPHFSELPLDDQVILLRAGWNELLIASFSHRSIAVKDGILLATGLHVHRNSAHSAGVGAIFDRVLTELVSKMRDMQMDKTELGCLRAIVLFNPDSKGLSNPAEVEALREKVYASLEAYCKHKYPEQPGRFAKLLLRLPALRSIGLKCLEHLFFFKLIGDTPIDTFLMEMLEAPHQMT

Take `Cc1cc(OCP(=O)(O)O)cc(C)c1Cc1ccc(O)c(C(C)C)c1` [MB07444, reference compound]: the EC50 at THR-β was 33 nM; at THR-α, 51 nM. Also, the Emax on THR-β (setting [3]) and on THR-α (setting [3]) was 113% throughout. The “α/β selectivity (multiple)” value at THR-β (calculated after being standardized with T3) is 2.9 multiple. Moreover, in data set [1] (setting [4]), the AUC(0-inf) turned out to be 448 ng·h/mL. Also, in data set [1] (setting [4]), the AUC(0-t) came out at 420 ng·h/mL. Besides, the Tmax in data set [1] (setting [4]) came to 7.33 h. Also, the half-life in data set [1] (setting [4]) was 5.29 h. For the same compound, the Cmax in data set [1] (male, Sprague-Dawley (SD), rat, po, 3 mg/kg, oral 3 mg/kg VK2809, read-out: Cmax) turned out to be 38.8 ng/mL. For the same compound, in data set [1] (oral 3 mg/kg VK2809), the Kel was determined as 0.131 h⁻¹. The concentration at 1 h is 214 ng/g in data set [2] (liver, 1 h, read-out: Ct Liver) and 5.9 ng/g in data set [2] (plasma, 1 h, read-out: Ct Blood). Moreover, the concentration at 4 h was 952 ng/g in data set [2] (liver, 4 h, read-out: Ct Liver) and 16.9 ng/g in data set [2] (plasma, 4 h, read-out: Ct Blood). The concentration at 8 h in data set [2] (liver, 8 h, read-out: Ct Liver) was found to be 542 ng/g; in data set [2] (plasma, 8 h, read-out: Ct Blood), 29.6 ng/g. Moreover, the concentration at 24 h was 37 ng/g in data set [2] (liver, 24 h, read-out: Ct Liver) and 3.6 ng/g in data set [2] (plasma, 24 h, read-out: Ct Blood). For the same compound, in data set [2] (liver/plasma, 1 h, read-out: Liver-to-blood ratio), the Kp at 1 h was 15.9. The Kp at 4 h in data set [2] (liver/plasma, 4 h, read-out: Liver-to-blood ratio) turned out to be 14. Further, the Kp at 8 h in data set [2] (liver/plasma, 8 h, read-out: Liver-to-blood ratio) amounted to 13.6. In addition, the Kp at 24 h in data set [2] (liver/plasma, 24 h, read-out: Liver-to-blood ratio) worked out at 9.9.

What is called EC50 is the midpoint of the concentration-response curve. For orientation: Emax means the size of the effect at its maximum, as opposed to the concentration needed. The AUC(0-inf) is the area under the concentration-time curve extrapolated to infinity. For orientation: AUC(0-t) means exposure summed from dosing to a finite time, without extrapolation to infinity. The term Tmax denotes the time at which the peak concentration occurs. Usually half-life stands for how long it takes for the measured level to halve. What is called Cmax is the highest concentration seen after dosing.
